Experimental data as given in patent US20080234266A1, “Squaric Acid Derivatives II” (priority 2005, published 2008).

molecular target: T1, CHK1 kinase (Homo sapiens, UniProt O14757); assay: Flashplate method (CHK1), measurement of the CHK1 kinase activity; assay type: biochemical; settings: class symbols; 'Affinity to receptors'
T1 construct: glutathione S-transferase (GST); made in house; host or cells: Sf21 insect cells (S. frugiperda), baculovirus
T1 sequence (O14757 1-476): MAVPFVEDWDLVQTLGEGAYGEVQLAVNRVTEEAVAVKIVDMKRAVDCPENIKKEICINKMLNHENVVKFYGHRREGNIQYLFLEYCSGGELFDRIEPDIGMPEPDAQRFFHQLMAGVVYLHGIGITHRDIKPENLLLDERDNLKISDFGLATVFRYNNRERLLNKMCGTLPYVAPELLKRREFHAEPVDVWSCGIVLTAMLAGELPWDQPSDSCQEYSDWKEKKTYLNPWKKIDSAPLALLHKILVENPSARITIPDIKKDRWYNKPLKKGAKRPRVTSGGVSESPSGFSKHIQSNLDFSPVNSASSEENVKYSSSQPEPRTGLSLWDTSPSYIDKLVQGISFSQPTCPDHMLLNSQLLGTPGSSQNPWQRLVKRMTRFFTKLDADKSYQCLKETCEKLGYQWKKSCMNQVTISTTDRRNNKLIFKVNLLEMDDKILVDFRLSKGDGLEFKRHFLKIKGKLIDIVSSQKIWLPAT
Description: CHK1 kinase is expressed for the purposes of protein production in insect cells (Sf21; S. frugiperda) and subsequent purification by affinity chromatography as fusion protein with glutathione S-transferase in a baculovirus expression vector. The cultivation, infection and digestion of the cells as well as the purification of the fusion protein by column chromatography are carried out in accordance with manufacturer-oriented generic working instructions.
The kinase activity is measured using various available measurement systems. In the scintillation proximity method (Sorg et al., J. of. Biomolecular Screening, 2002, 7, 11-19), the flashplate method or the filter binding test, the radioactive phosphorylation of a protein or peptide as substrate is measured using radioactively labelled ATP (γ^32P-ATP, (γ^33P-ATP). In the case of the presence of an inhibitory compound, a reduced radioactive signal, or none at all, can be detected. Furthermore, homogeneous time-resolved fluorescence resonance energy transfer (HTR-FRET) and fluorescence polarisation (FP) technologies are useful as assay methods (Sills et al., J. of Biomolecular Screening, 2002, 191-214).
The test plates used are 384-well streptavidin-coated Flashplates Plus® from Perkin Elmer (Cat.No. SMP410A001PK). The assay plate is equilibrated with 75 μl of assay buffer per well 30 min before commencement of the experiment. The buffer is sucked out before commencement of the experiment, and the components of the kinase reaction described below are pipetted onto the plate.
CHK1 kinase, a biotinylated substrate peptide (for example CHKtide: […]), is incubated with radioactively labelled ATP in the presence and absence of test substances at 30° Celsius and a total volume of 50 μl. The reaction is terminated using 25 μl of a 0.2 M EDTA solution. After incubation for 30 min at room temperature, the supernatants are filtered off with suction, and the wells are washed three times with 100 μl of 0.9% NaCl solution each time. The measurement of the bound radioactivity is carried out by means of a scintillation measuring instrument (Topcount NXT, Perkin-Elmer).
The full value used is the inhibitor-free kinase reaction. This should be approximately in the range 3000-4000 cpm. The pharmacological zero value used is staurosporin in a final concentration of 0.1 μM. The inhibitory values (IC50) are determined using the program RS1_MTS ( ).
Kinase reaction conditions per well:
0.15 μg of CHKtide ([…])
50 μl total volume (1-fold assay buffer reaction conditions)
Solutions used: • assay buffer:
0.1 mM Titriplex VI (EGTA
10 mM magnesium acetate 0.1% mercaptoethanol
pH=7.5 (to be set using hydrochloric acid) Bovine serum albumin (final concentration 0.1%) is not added until just before use. • stop solution:
0.2 M TitriplexIII (EDTA)
• γ^33P-ATP (Perkin-Elmer) • CHK1 kinase preparations: specific activity>50 U/mg • CHKtide solution: biotinylated peptide substrate (Biotrend) stored as stock solution (concentration 0.15 mg/ml).

IC50 [nM]	Molecule
> 1000	CS(=O)(=O)Oc1cccc(CNc2c(Nc3ccc4[nH]cnc4c3)c(=O)c2=O)c1 [Compound A132, 3-(1H-benzimidazol-5-ylamino)-4-(3-methyl-sulfonyloxybenzylamino)cyclobut-3-ene-1,2-dione]
< 1000	O=c1c(NCc2cccc(O)c2)c(NCc2ccc3[nH]nnc3c2)c1=O [Compound A15, 3-(1H-benzotriazol-5-ylmethylamino)-4-(3-hydroxybenzylamino)cyclobut-3-ene-1,2-dione]
> 1000	O=c1c(NCc2ccccc2O)c(Nc2ccc3[nH]cnc3c2)c1=O [Compound A158, 3-(1H-benzimidazol-5-ylamino)-4-(2-hydroxy-benzylamino)cyclobut-3-ene-1,2-dione]
> 1000	CS(=O)(=O)c1cccc(CNc2c(Nc3ccc4[nH]cnc4c3)c(=O)c2=O)c1 [Compound A131, 3-(1H-benzimidazol-5-ylamino)-4-(3-methyl-sulfonylbenzylamino)cyclobut-3-ene-1,2-dione]
> 1000	COc1cc(CNc2c(Nc3ccc4[nH]cnc4c3)c(=O)c2=O)ccc1F [Compound A76, 3-(1H-benzimidazol-5-ylamino)-4-(4-fluoro-3-methoxybenzylamino)cyclobut-3-ene-1,2-dione]
> 1000	O=c1c(NCc2cccc(O)c2)c(Nc2ccc3[nH]ccc3c2)c1=O [Compound A29, 3-(1H-indol-5-ylamino)-4-(3-hydroxybenzyl-amino)cyclobut-3-ene-1,2-dione]
> 1000	CN(C)c1ccc(CNc2c(Nc3ccc4[nH]cnc4c3)c(=O)c2=O)cc1 [Compound A147, 3-(1H-benzimidazol-5-ylamino)-4-(4-dimethylaminobenzylamino)cyclobut-3-ene-1,2-dione]
> 1000	Cc1cc2[nH]cnc2cc1Nc1c(NCc2cccc(O)c2)c(=O)c1=O [Compound A126, 3-(3-hydroxybenzylamino)-4-(6-methyl-1H-benzimidazol-5-ylamino)cyclobut-3-ene-1,2-dione]
> 1000	NC(=O)c1c[nH]c2ccc(Nc3c(NCc4cccc(O)c4)c(=O)c3=O)cc12 [Compound A32, 3-(3-aminocarbonyl-1H-indol-5-ylamino)-4-(3-hydroxybenzylamino)cyclobut-3-ene-1,2-dione]

Further lines, the molecule ahead of its results:

Molecule	IC50 [nM]
O=c1c(NCc2ccc3cc[nH]c3c2)c(Nc2ccc3[nH]cnc3c2)c1=O [Compound A137, 3-(1H-benzimidazol-5-ylamino)-4-[(1H-indol-6-ylmethyl)amino]cyclobut-3-ene-1,2-dione]	> 1000
CCN(CC)CCn1cnc2ccc(Nc3c(N[C@H](C)c4cccc(OC)c4)c(=O)c3=O)cc21 [Compound A65, 3-[3-(2-diethylaminoethyl)-3H-benzimidazol-5-ylamino]-4-[(R)-1-(3-methoxyphenyl)ethyl-amino]cyclobut-3-ene-1,2-dione]	> 1000
CCN(CC)CCn1cnc2cc(Nc3c(N[C@H](C)c4cccc(OC)c4)c(=O)c3=O)ccc21 [Compound A168, 3-[1-(2-diethylaminoethyl)-1H-benzimidazol-5-ylamino]-4-[(R)-1-(3-methoxyphenyl)ethyl-amino]cyclobut-3-ene-1,2-dione]	> 1000
O=CNc1cccc(CNc2c(Nc3ccc4[nH]cnc4c3)c(=O)c2=O)c1 [Compound A134, 3-(1H-benzimidazol-5-ylamino)-4-(3-formyl-aminobenzylamino)cyclobut-3-ene-1,2-dione]	> 1000
COc1cccc([C@@H](C)Nc2c(Nc3ccc4ncn(C)c4c3)c(=O)c2=O)c1 [Compound A53, 3-[(R)-1-(3-methoxyphenyl)ethylamino]-4-(3-methyl-3H-benzimidazol-5-ylamino)cyclobut-3-ene-1,2-dione]	< 1000
Cc1ccc(CNc2c(Nc3ccc4[nH]cnc4c3)c(=O)c2=O)cc1O [Compound A92, 3-(1H-benzimidazol-5-ylamino)-4-(3-hydroxy-4-methylbenzylamino)cyclobut-3-ene-1,2-dione]	> 1000
O=c1c(NCc2cccc(Cl)c2)c(Nc2ccc3[nH]cnc3c2)c1=O [Compound A33, 3-(1H-benzimidazol-5-ylamino)-4-(3-chloro-benzylamino)cyclobut-3-ene-1,2-dione]	> 1000
O=c1c(Nc2ccc3[nH]cnc3c2)c(N2CCc3ccc(O)cc3C2)c1=O [Compound A82, 3-(1H-benzimidazol-5-ylamino)-4-(7-hydroxy-3,4-dihydro-1H-isoquinolin-2-yl)cyclobut-3-ene-1,2-dione]	> 1000
O=c1c(NCCc2ccc(O)cc2)c(Nc2ccc3[nH]cnc3c2)c1=O [Compound A140, 3-(1H-benzimidazol-5-ylamino)-4-[2-(4-hydroxyphenyl)ethylamino]cyclobut-3-ene-1,2-dione]	> 1000
CC[C@@H](Nc1c(Nc2ccc3[nH]cnc3c2)c(=O)c1=O)c1cccc(O)c1 [Compound A120, 3-(1H-benzimidazol-5-ylamino)-4-[(R)-1-(3-hydroxyphenyl)propylamino]cyclobut-3-ene-1,2-dione]	< 1000
O=c1c(NCc2ccc3[nH]cc(-c4ccncc4)c3c2)c(Nc2ccc3[nH]cnc3c2)c1=O [Compound A102, 3-(1H-benzimidazol-5-ylamino)-4-[(3-pyridin-4-yl-1H-indol-5-ylmethyl)amino]cyclobut-3-ene-1,2-dione]	> 1000
O=c1c(NCc2ccc(O)cc2)c(Nc2ccc3[nH]cnc3c2)c1=O [Compound A139, 3-(1H-benzimidazol-5-ylamino)-4-(4-hydroxy-benzylamino)cyclobut-3-ene-1,2-dione]	> 1000
CCOC(=O)c1cc2cc(Nc3c(NCc4cccc(O)c4)c(=O)c3=O)ccc2[nH]1 [Compound A81, 3-(2-ethoxycarbonyl-1H-indol-5-ylamino)-4-(3-hydroxybenzylamino)cyclobut-3-ene-1,2-dione]	> 1000
O=c1c(NCc2ccc3[nH]cnc3c2)c(Nc2ccc3[nH]cnc3c2)c1=O [Compound A88, 3-(1H-benzimidazol-5-ylamino)-4-[(1H-benzimidazol-5-ylmethyl)amino]cyclobut-3-ene-1,2-dione]	> 1000
3-[(R)-1-(3-methoxyphenyl)ethylamino]-4-(8-methylimidazo[1,2-a]pyridin-6-ylamino)-cyclobut-3-ene-1,2-dione [Compound A59]	> 1000
O=c1c(NCc2cccc(-n3cccc3)c2)c(Nc2ccc3[nH]cnc3c2)c1=O [Compound A35, 3-(1H-benzimidazol-5-ylamino)-4-(3-pyrrol-1-ylbenzylamino)cyclobut-3-ene-1,2-dione]	> 1000
CC(Nc1c(Nc2ccc3[nH]cnc3c2)c(=O)c1=O)c1ccc2[nH]ccc2c1 (centres unmarked) [Compound A75, 3-(1H-benzimidazol-5-ylamino)-4-[1-(1H-indol-5-yl)ethylamino]cyclobut-3-ene-1,2-dione]	> 1000
CNS(=O)(=O)c1ccc(CNc2c(Nc3ccc4[nH]cnc4c3)c(=O)c2=O)cc1 [Compound A152, 3-(1H-benzimidazol-5-ylamino)-4-[4-(N-methylaminosulfonyl)benzylamino]cyclobut-3-ene-1,2-dione]	> 1000
O=c1c(NCCc2cccc(O)c2)c(Nc2ccc3[nH]cnc3c2)c1=O [Compound A142, 3-(1H-benzimidazol-5-ylamino)-4-[2-(3-hydroxyphenyl)ethylamino]cyclobut-3-ene-1,2-dione]	> 1000
COC(=O)Nc1cccc(CNc2c(Nc3ccc4[nH]cnc4c3)c(=O)c2=O)c1 [Compound A128, 3-(1H-benzimidazol-5-ylamino)-4-(3-methoxycarbonylaminobenzylamino)-cyclobut-3-ene-1,2-dione]	> 1000
